ChEMBL document CHEMBL4382204 (Eur J Med Chem, 2018)
pEC50: −log10 of the molar value. Calls of active or inactive are those of the source. The rule behind the calls is not given here.

Legend:
Bcr/Abl fusion protein [1] = biological target: T1, Bcr/Abl fusion protein (Homo sapiens, UniProt P00519, T315I); experiment: Inhibition of BCR/ABL T315I mutant (unknown origin) expressed in mouse BAF3 cells assessed as inhibition of ErK phosphorylation after 1 hr by immunoblotting analysis; assay type: cell-based
Bcr/Abl fusion protein [2] = biological target: T1, Bcr/Abl fusion protein; experiment: Inhibition of BCR/ABL T315I mutant (unknown origin) expressed in mouse BAF3 cells assessed as inhibition of STAT5 phosphorylation after 1 hr by immunoblotting analysis; assay type: cell-based
Bcr/Abl fusion protein [3] = biological target: T1, Bcr/Abl fusion protein; experiment: Inhibition of BCR/ABL T315I mutant (unknown origin) expressed in mouse BAF3 cells assessed as inhibition of CrkL phosphorylation after 1 hr by immunoblotting analysis; assay type: cell-based
[4] = biological target: Fibroblast growth factor receptor 3 (Homo sapiens) (UniProt P22607); experiment: Inhibition of wild type C-terminal FLAG-tagged human TEL fused FGFR3 (unknown origin) transfected in mouse BAF3 cells assessed as growth inhibition after 72 hrs by CCK8 assay; assay type: cell-based
Sequence of Fibroblast growth factor receptor 3 (Homo sapiens) (P22607 23-806 limits assumed): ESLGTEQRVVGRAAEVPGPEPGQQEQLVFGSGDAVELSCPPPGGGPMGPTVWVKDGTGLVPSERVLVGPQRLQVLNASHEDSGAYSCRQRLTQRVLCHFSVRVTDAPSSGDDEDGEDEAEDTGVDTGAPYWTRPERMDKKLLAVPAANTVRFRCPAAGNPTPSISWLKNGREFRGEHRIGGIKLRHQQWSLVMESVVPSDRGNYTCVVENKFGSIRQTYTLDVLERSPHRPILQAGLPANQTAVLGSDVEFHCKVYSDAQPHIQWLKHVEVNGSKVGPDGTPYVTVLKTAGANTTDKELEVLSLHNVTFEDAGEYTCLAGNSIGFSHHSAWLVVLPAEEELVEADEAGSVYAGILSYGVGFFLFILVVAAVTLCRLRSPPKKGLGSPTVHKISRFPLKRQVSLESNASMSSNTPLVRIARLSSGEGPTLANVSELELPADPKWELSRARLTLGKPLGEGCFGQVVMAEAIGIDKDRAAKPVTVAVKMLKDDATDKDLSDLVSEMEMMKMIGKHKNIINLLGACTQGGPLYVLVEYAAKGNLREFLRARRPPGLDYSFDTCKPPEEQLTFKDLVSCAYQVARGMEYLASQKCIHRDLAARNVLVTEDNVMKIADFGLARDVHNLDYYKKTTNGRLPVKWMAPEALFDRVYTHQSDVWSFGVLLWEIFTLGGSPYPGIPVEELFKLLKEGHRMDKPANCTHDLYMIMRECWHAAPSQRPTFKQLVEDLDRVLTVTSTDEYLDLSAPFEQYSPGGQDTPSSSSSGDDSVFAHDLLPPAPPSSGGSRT

[5] = test system: Tyrosine-protein kinase ABL1 (Homo sapiens), P00519 [T315I]; settings: BaF3
[6] = Toxicity in nu/nu mouse allografted with mouse BAF3 cells expressing BCR/ABL T315I mutant assessed as effect on body weight at 25 to 50 mg/kg, po administered daily via gavage for 14 days; assay type: organism-based; settings: in vivo, 336 h
K562 [7] = experiment: Antiproliferative activity in human K562 cells after 72 hrs by CCK8 assay; assay type: functional; settings: K562, 72 h
[8] = Oral bioavailability in mouse at 10 mg/kg by LC-MS/MS analysis; assay type: ADME, organism-based; settings: in vivo
[9] = biological target: Platelet-derived growth factor receptor beta (Homo sapiens) (UniProt P09619); experiment: Inhibition of wild type C-terminal FLAG-tagged human TEL fused PDGFRbeta (unknown origin) transfected in mouse BAF3 cells assessed as growth inhibition after 72 hrs by CCK8 assay; assay type: cell-based
Sequence of Platelet-derived growth factor receptor beta (Homo sapiens) (P09619 whole entry, the tested form may be a part): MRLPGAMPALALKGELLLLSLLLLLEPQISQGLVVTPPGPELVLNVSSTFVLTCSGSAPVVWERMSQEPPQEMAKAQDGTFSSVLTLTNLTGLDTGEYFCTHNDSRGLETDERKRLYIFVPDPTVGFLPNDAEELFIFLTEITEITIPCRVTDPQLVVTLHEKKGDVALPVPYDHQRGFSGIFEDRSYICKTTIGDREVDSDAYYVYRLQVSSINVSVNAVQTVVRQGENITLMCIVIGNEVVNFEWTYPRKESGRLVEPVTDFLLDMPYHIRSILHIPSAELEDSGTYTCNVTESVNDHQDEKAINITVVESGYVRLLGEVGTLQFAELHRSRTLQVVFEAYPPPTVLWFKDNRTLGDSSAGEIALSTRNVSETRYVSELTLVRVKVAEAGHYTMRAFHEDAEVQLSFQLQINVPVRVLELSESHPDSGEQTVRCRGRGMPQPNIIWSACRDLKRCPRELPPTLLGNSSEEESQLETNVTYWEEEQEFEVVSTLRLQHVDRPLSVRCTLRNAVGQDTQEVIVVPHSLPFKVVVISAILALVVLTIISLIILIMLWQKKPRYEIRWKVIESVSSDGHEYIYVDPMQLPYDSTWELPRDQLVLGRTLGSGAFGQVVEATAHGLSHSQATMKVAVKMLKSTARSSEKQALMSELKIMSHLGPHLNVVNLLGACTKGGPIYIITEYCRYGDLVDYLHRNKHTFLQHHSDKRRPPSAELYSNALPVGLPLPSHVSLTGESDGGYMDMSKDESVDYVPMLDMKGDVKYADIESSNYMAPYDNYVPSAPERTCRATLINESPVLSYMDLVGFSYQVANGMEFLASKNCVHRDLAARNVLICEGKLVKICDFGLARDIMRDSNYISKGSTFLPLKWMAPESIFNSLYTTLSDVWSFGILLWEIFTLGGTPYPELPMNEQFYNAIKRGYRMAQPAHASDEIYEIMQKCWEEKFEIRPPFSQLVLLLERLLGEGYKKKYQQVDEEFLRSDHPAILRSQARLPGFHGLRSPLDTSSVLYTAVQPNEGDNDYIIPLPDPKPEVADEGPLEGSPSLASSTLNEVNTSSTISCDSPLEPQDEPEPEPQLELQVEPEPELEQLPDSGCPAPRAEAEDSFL

Bcr/Abl fusion protein [10] = biological target: T1, Bcr/Abl fusion protein; experiment: Inhibition of BCR/ABL T315I mutant (unknown origin) expressed in mouse BAF3 cells assessed as inhibition of BCR/ABL T315I mutant autophosphorylation at Y245 site after 1 hr by immunoblotting analysis; assay type: cell-based
[11] = test system: Bcr/Abl fusion protein (Homo sapiens), P00519+P11274 [M351T]; settings: BaF3
OCI-AML2 = experiment: Antiproliferative activity in human OCI-AML2 cells after 72 hrs by CCK8 assay; assay type: functional; settings: OCI-AML2, 72 h
[12] = Apparent clearance during terminal phase in Sprague-Dawley rat at 10 mg/kg, po by LC-MS/MS analysis; assay type: ADME, organism-based; settings: in vivo, read-out: CLz/F (converted)
[13] = test system: Bcr/Abl fusion protein (Homo sapiens), P00519+P11274 [F317L]; settings: BaF3
[14] = biological target: T2, Bcr/Abl fusion protein (Homo sapiens) (UniProt P00519+P11274); experiment: Inhibition of BCR/ABL in human K562 cells assessed as inhibition of CrkL phosphorylation up to 0.3 uM after 1 hr by immunoblotting analysis; assay type: cell-based
BaF3 [15] = experiment: Antitumor activity against mouse BAF3 cells expressing BCR/ABL T315I mutant allografted in nu/nu mouse assessed as tumor growth inhibition at 50 mg/kg, po administered via gavage for 14 days relative to control; assay type: functional; settings: 336 h, read-out: TGI
[16] = MRT (0 to t) in Sprague-Dawley rat at 1 mg/kg, iv by LC-MS/MS analysis; assay type: ADME, organism-based; settings: in vivo
[17] = AUC (0 to t) in mouse at 1 mg/kg, iv by LC-MS/MS analysis; assay type: ADME, organism-based; settings: in vivo
[18] = biological target: Fibroblast growth factor receptor 2 (Homo sapiens) (UniProt P21802); experiment: Inhibition of wild type C-terminal FLAG-tagged human TEL fused FGFR2 (unknown origin) transfected in mouse BAF3 cells assessed as growth inhibition after 72 hrs by CCK8 assay; assay type: cell-based
Sequence of Fibroblast growth factor receptor 2 (Homo sapiens) (P21802 22-821 limits assumed): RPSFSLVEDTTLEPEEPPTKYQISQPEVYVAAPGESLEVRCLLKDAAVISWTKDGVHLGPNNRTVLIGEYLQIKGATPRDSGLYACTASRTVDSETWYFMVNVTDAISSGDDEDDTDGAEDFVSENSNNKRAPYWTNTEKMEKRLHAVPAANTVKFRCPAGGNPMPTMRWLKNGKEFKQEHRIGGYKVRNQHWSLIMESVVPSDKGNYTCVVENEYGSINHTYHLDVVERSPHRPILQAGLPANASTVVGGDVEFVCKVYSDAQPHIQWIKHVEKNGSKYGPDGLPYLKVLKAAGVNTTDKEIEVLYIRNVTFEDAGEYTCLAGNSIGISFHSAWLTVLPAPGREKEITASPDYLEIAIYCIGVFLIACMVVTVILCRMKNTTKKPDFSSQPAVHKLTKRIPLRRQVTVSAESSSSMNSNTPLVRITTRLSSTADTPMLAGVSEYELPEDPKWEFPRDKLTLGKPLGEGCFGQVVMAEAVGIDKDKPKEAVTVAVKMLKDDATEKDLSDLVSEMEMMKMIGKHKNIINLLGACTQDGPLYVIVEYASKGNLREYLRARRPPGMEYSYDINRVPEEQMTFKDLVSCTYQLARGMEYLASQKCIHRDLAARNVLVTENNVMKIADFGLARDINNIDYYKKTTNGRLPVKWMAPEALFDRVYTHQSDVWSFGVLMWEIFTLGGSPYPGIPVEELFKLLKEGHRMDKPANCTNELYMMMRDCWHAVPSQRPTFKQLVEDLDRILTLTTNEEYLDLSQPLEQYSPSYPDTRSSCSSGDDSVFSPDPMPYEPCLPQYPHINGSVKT

[19] = Tmax in mouse at 10 mg/kg, po by LC-MS/MS analysis; assay type: ADME, organism-based; settings: in vivo
[20] = biological target: Fibroblast growth factor receptor 4 (Homo sapiens) (UniProt P22455); experiment: Inhibition of wild type C-terminal FLAG-tagged human TEL fused FGFR4 (unknown origin) transfected in mouse BAF3 cells assessed as growth inhibition after 72 hrs by CCK8 assay; assay type: cell-based
Sequence of Fibroblast growth factor receptor 4 (Homo sapiens) (P22455 22-802 limits assumed): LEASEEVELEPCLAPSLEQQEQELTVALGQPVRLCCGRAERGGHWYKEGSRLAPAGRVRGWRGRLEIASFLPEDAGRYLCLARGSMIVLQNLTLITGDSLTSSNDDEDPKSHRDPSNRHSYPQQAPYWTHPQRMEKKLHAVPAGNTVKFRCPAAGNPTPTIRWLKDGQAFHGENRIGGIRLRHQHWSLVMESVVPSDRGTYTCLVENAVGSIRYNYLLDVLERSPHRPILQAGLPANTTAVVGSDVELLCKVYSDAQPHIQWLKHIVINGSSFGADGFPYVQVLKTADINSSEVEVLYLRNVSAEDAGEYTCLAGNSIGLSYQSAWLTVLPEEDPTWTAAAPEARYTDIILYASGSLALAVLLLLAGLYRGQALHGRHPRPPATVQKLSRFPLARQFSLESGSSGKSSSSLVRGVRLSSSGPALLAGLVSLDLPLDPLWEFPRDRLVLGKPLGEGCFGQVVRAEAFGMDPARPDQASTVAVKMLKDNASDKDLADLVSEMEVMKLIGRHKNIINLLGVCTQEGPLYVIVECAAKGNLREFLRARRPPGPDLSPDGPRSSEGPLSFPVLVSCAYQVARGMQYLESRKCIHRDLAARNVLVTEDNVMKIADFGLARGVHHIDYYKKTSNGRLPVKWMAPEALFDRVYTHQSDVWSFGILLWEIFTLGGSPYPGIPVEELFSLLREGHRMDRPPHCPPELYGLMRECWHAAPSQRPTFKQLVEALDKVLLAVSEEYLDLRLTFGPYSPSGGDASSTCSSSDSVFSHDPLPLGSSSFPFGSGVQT

[21] = biological target: T2, Bcr/Abl fusion protein (Homo sapiens); experiment: Inhibition of BCR/ABL in human K562 cells assessed as inhibition of STAT5 phosphorylation up to 0.3 uM after 1 hr by immunoblotting analysis; assay type: cell-based
[22] = Apparent clearance during terminal phase in mouse at 10 mg/kg, po by LC-MS/MS analysis; assay type: ADME, organism-based; settings: in vivo, read-out: CLz/F (converted)
[23] = test system: Bcr/Abl fusion protein (Homo sapiens), P00519+P11274 [F317I]; settings: BaF3
[24] = Cmax in Sprague-Dawley rat at 10 mg/kg, po by LC-MS/MS analysis; assay type: ADME, organism-based; set-up: dose 10 mg/kg, route oral; settings: in vivo
[25] = MRT (0 to t) in mouse at 10 mg/kg, po by LC-MS/MS analysis; assay type: ADME, organism-based; settings: in vivo
[26] = Half life in Sprague-Dawley rat at 10 mg/kg, po by LC-MS/MS analysis; assay type: ADME, organism-based; settings: in vivo
BaF3 [27] = experiment: Antitumor activity against mouse BAF3 cells expressing BCR/ABL T315I mutant allografted in po dosed nu/nu mouse assessed as tumor growth inhibition administered daily via gavage for 13 days; assay type: functional, organism-based
KU812 cell line = experiment: Cell cycle arrest in human KU812 cells assessed as accumulation at G0/G1 phase up to 0.3 uM after 24 hrs by propidium iodide/RNase staining based flow cytometric analysis; assay type: functional
MEG-01 = experiment: Induction of apoptosis in human MEG01 cells assessed as cleaved caspase-3 level up to 0.3 uM after 24 hrs by immunoblotting analysis; assay type: functional, cell-based
[28] = Antiproliferative activity in mouse BAF3 cells after 72 hrs by CCK8 assay; assay type: cell-based
[29] = test system: Bcr/Abl fusion protein (Homo sapiens), P00519+P11274 [V299L]; settings: BaF3
[30] = biological target: T2, Bcr/Abl fusion protein (Homo sapiens); experiment: Inhibition of BCR/ABL in human MEG01 cells assessed as inhibition of ErK phosphorylation up to 0.3 uM after 1 hr by immunoblotting analysis; assay type: cell-based
[31] = biological target: Ephrin type-A receptor 2 (Homo sapiens) (UniProt P29317); experiment: Inhibition of wild type C-terminal FLAG-tagged human TEL fused EPHA2 (unknown origin) transfected in mouse BAF3 cells assessed as growth inhibition after 72 hrs by CCK8 assay; assay type: cell-based
Sequence of Ephrin type-A receptor 2 (Homo sapiens) (P29317 whole entry, the tested form may be a part): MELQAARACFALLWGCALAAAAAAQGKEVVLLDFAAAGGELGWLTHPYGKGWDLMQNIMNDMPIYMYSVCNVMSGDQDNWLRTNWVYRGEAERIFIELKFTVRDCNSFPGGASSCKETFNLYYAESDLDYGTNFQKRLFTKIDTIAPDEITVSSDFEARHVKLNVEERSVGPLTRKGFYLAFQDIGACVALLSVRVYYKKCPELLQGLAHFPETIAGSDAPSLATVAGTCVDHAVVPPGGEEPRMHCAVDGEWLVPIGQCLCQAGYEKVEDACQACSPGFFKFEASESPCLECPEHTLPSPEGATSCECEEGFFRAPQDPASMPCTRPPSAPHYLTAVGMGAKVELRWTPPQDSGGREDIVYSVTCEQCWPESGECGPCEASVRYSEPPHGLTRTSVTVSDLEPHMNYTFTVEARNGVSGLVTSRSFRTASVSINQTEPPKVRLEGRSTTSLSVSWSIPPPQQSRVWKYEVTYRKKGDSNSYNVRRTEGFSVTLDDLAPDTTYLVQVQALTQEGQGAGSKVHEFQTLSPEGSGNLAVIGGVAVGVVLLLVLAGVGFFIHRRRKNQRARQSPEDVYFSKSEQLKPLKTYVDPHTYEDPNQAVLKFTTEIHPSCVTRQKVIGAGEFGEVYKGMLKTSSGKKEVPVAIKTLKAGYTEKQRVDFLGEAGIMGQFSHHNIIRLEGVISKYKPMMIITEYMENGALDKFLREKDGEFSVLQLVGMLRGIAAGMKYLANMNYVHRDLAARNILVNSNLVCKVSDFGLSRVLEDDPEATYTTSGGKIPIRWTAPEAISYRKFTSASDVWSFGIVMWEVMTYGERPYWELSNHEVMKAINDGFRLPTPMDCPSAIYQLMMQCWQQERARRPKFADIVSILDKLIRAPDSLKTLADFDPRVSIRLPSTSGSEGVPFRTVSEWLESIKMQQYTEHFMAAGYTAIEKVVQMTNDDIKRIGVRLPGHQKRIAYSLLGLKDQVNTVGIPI

[32] = biological target: T2, Bcr/Abl fusion protein (Homo sapiens); experiment: Inhibition of BCR/ABL in human KU812 cells assessed as inhibition of ErK phosphorylation up to 0.3 uM after 1 hr by immunoblotting analysis; assay type: cell-based
[33] = test system: Bcr/Abl fusion protein (Homo sapiens), P00519+P11274 [T315I]; settings: BaF3
K562 [34] = experiment: Induction of apoptosis in human K562 cells assessed as cleaved PARP level up to 0.3 uM after 24 hrs by immunoblotting analysis; assay type: functional, cell-based
[35] = Tmax in Sprague-Dawley rat at 10 mg/kg, po by LC-MS/MS analysis; assay type: ADME, organism-based; settings: in vivo

Compound `CN1CCN(Cc2ccc(NC(=O)CCSc3ccc4c(/C=C/c5ccccn5)n[nH]c4c3)cc2C(F)(F)F)CC1` has a pEC50 (Bcr/Abl fusion protein [1]) greater than 8.00, a pEC50 (Bcr/Abl fusion protein [2]) greater than 8.00 and a pEC50 (Bcr/Abl fusion protein [3]) greater than 8.00. For the same compound, the GI50 [4] was 73 nM, the GI50 [5] was 3 nM and the Activity [6] was “Non-Toxic”. The GI50 (K562 [7]) was 1 nM, the bioavailability [8] was 14.4% and the GI50 [9] was 8 nM. It also gave a pEC50 (Bcr/Abl fusion protein [10]) greater than 8.00, a GI50 [11] of 17 nM and a GI50 (OCI-AML2) of 1420 nM. For the same compound, the CL/F [12] was 633 mL/min/kg, the GI50 [13] was 18 nM and the inhibition [14] was “Active”. For the same compound, the inhibition in vivo at 50 mg/kg (BaF3 [15]) was 52%, the MRT last [16] was 1.2 h and the AUC(0-t) [17] was 148 ng·h/mL. For the same compound, the GI50 [18] was 36 nM, the Tmax [19] was 1 h and the GI50 [20] was 75 nM. The inhibition [21] was “Active”, the CL/F [22] was 723 mL/min/kg and the GI50 [23] was 25 nM. It also gave a Cmax [24] of 48.6 ng/mL, an MRT last [25] of 3.3 h and a half-life [26] of 2.6 h. The TGI (BaF3 [27]) was “Dose-dependent effect”, the Activity (KU812 cell line) was “Active” and the Activity (MEG-01) was “Active”. The GI50 at 72 h [28] was 2480 nM, the GI50 [29] was 103 nM and the inhibition [30] was “Active”. For the same compound, the GI50 [31] was 120 nM, the inhibition [32] was “Active” and the GI50 [33] was 6 nM. For the same compound, the Activity (K562 [34]) was “Active” and the Tmax [35] was 3.3 h.
